Reference: PMC5259778, “Candidate pheromone receptors of codling moth Cydia pomonella respond to pheromones and kairomones” (Scientific Reports, 2017)

System: CpomOrco + OR1
Test: Whole-cell patch-clamp recording of HEK293T cells expressing CpomOrco + OR1
Format: cell-based, Cydia pomonella
Details: VUAA3 200 μM, n = 37
Description: To test transient expression of CpomORs for calcium imaging or patch-clamp recording experiments, 35-mm petri dishes containing semi-confluent HEK293T cells were transiently transfected. To transfect cells with CpomOrco, we used 1.0 μg of pcDNA5/TO/CpomOrco DNA. In order to promote expression of the OR[51], we used double aliquots for pcDNA5/TO/CpomOR DNAs (2.0 μg), combined with 1.0 μg of pcDNA5/TO/CpomOrco for co-transfections (CpomOrco + ORs). […] In patch-clamp recordings, 1.0 μg of a separate plasmid DNA (pXOOM, Clontech) carrying the coding sequence for a green fluorescent protein (GFP) was used to report expression. In order to report candidate OR-expressing cells, expression of both fluorescent reporter genes was under the regulation of the same promoter for CpomOR genes (CMV). Transfection DNAs were dissolved in 100 μL sterile DMEM, mixed with 3.0 μL Calfectin (SignaGen, Rockville, MD, USA) following the recommended protocol. […] The currents were measured with a 200B patch-clamp amplifier (Molecular Devices) and a digital interface (Digidata 1320 A, Molecular Devices), low pass filtered at 5.0 kHz, sampled at 1-2 kHz. […] The OR channel current noise was recorded using outside-out patches excised from HEK293T cells and evoked by stimulation with 250 μM VUAA3. […]

CCn1c(SCC(=O)Nc2ccc(C(C)C)cc2)nnc1-c1ccncc1 [VUAA3, acetamide,2-[[4-ethyl-5-(4-pyridinyl)-4H-1,2,4-triazol-3-yl]thio]-N-[4-(1-methylethyl)phenyl]-]
inward current amplitude, variation: −49 to −1165 pA | inward current mean amplitude: −431 ± 54 pA
